Measurements reported in patent US10294202B2, “Pyrrolidinones as herbicides” (FMC Corporation, priority 2013, dated 2019).
Like-named read-outs stand apart in the source and are kept apart here.

Tests used:
galium = experiment: Test C pre-/postemergence herbicide test; assay type: in vivo, Galium aparine
Outline: (§1)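 Test compounds, formulated in a surfactant-containing non-phytotoxic solvent blend, are applied to seeded loam/sand soil (preemergence) and to young plants at the 1- to 4-leaf stage in peat-based medium (postemergence). Plants stay 13 to 15 days under greenhouse conditions, then are scored visually relative to controls, 0 = no effect, 100 = complete control.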

ragweed = experiment: Test C pre-/postemergence herbicide test; assay type: in vivo, Ambrosia elatior
Outline: as §1

blackgrass = experiment: Test C pre-/postemergence herbicide test; assay type: in vivo, Alopecurus myosuroides
Outline: as §1

crabgrass, large = experiment: Test C pre-/postemergence herbicide test; assay type: in vivo, Digitaria sanguinalis
Outline: as §1

oat, wild = experiment: Test C pre-/postemergence herbicide test; assay type: in vivo, Avena fatua
Text: Seeds of plant species selected from blackgrass (Alopecurus myosuroides), ryegrass, Italian (Italian ryegrass, Lolium multiflorum), wheat (winter wheat, Triticum aestivum), galium (catchweed bedstraw, Galium aparine), corn (Zea mays), crabgrass, large (large crabgrass, Digitaria sanguinalis), foxtail, giant (giant foxtail, Setaria faberii), johnsongrass (Sorghum halepense), lambsquarters (Chenopodium album), morningglory (Ipomoea coccinea), nutsedge, yellow (yellow nutsedge, Cyperus esculentus), pigweed (Amaranthus retroflexus), ragweed (common ragweed, Ambrosia elatior), soybean (Glycine max), barnyardgrass (Echinochloa crus-galli), oilseed rape (Brassica napus), waterhemp (common waterhemp, Amaranthus rudis), kochia (Kochia scoparia), oat, wild (wild oat, Avena fatua), surinam grass (Brachiaria decumbens), foxtail, green (green foxtail, Setaria viridis), goosegrass (Eleusine indica), bromegrass, downy (downy bromegrass, Bromus tectorum), nightshade (eastern black nightshade, Solanum ptycanthum), cocklebur (common cocklebur, Xanthium strumarium), cupgrass, woolly (woolly cupgrass, Eriochloa villosa), bermudagrass (Cynodon dactylon), sunflower, (common oilseed sunflower, Helianthus annuus), Russian thistle (Salsola kali) and velvetleaf (Abutilon theophrasti) were planted into a blend of loam soil and sand and treated preemergence with test chemicals formulated in a non-phytotoxic solvent mixture which included a surfactant. At the same time, plants selected from these crop and weed species and also barley (winter barley, Hordeum vulgare), […]), chickweed (common chickweed, Stellaria media), deadnettle (henbit deadnettle, Lamium amplexicaule), and canarygrass (littleseed canarygrass, Phalaris minor) were planted in pots containing Redi-Earth® planting medium (Scotts Company, 14111 Scottslawn Road, Marysville, Ohio 43041) comprising spaghnum peat moss, vermiculite, wetting agent and starter nutrients and treated with postemergence applications of test chemicals formulated in the same manner. Plants ranged in height from 2 to 18 cm (1- to 4-leaf stage) for postemergence treatments. Treated plants and controls were maintained in a greenhouse for 13 to 15 days, after which time all species were compared to controls and visually evaluated. Plant response ratings, summarized in Table C, are based on a scale of 0 to 100 where 0 is no effect and 100 is complete control. A dash (-) response means no test result.

ryegrass, Italian = experiment: Test C pre-/postemergence herbicide test; assay type: in vivo, Lolium multiflorum
Outline: as §1

wheat = experiment: Test A pre-/postemergence herbicide test; assay type: in vivo, Triticum aestivum; settings: for plant injury at 500 g/ha / plant injury at 1000 g/ha: Triticum aestivum, 240 h, read-out: Plant response rating, Wheat; for plant injury at 1000 g/ha: 1000 g ai/ha
Outline: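 Planted in loam–sand blend; treated the same day preemergence by directed soil spray, while separately grown plants at one- to two-leaf stage got postemergence spray. Compared visually with untreated controls after approximately 10 days; 100 means complete control.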

johnsongrass = experiment: Test C pre-/postemergence herbicide test; assay type: in vivo, Sorghum halepense
Outline: as §1

corn = experiment: Test C pre-/postemergence herbicide test; assay type: in vivo, Zea mays
Outline: as §1

soybean = experiment: Test C pre-/postemergence herbicide test; assay type: in vivo, Glycine max
Outline: as §1

[1] = Preemergence, 62 g ai/ha, scale 0 to 100
[2] = Preemergence, 125 g ai/ha, scale 0 to 100 (0 no effect, 100 complete control)
[3] = Preemergence, 31 g ai/ha, scale 0 to 100 (0 no effect, 100 complete control)
[4] = Preemergence, 250 g ai/ha, scale 0 to 100 (0 no effect, 100 complete control)
[5] = Postemergence, 125 g ai/ha, 0 to 100 scale, 0 no effect, 100 complete control
[6] = Postemergence, 500 g ai/ha, 0 to 100 scale (0 no effect, 100 complete control)
[7] = Preemergence, 125 g ai/ha, visual rating on 0 to 100 scale (0 no effect, 100 complete control)
[8] = preemergence, 500 g ai/ha, 0 to 100 scale
[9] = Postemergence, 31 g ai/ha, scale 0 (no effect) to 100 (complete control)
[10] = Postemergence, 62 g ai/ha, scale 0 to 100 (0 no effect, 100 complete control)
[11] = Postemergence, 125 g ai/ha, scale 0 to 100 (0 no effect, 100 complete control)
[12] = Postemergence, 250 g ai/ha, scale 0 to 100 (0 no effect, 100 complete control)

O=C1NCC(c2ccc(Cl)c(Cl)c2)C1C(=O)Nc1ccccc1F (racemic) [Compound 14]
Plant response rating, Galium (galium; [1]): 0
Plant response rating, Galium (galium; [2]): 70
Galium plant response rating (galium; [3]): 0
Plant response rating, Galium (galium; [4]): 85
Plant response rating, Ragweed (ragweed; [1]): 0
Plant response rating, Ragweed (ragweed; [2]): 0
Plant response rating, Blackgrass (blackgrass; [1]): 0
Plant response rating, Blackgrass (blackgrass; [2]): 0
Blackgrass plant response rating (blackgrass; [3]): 0
Plant response rating, Blackgrass (blackgrass; [4]): 0
Plant response rating, Crabgrass, Large (crabgrass, large; [1]): 98
Plant response rating, Crabgrass, Large (crabgrass, large; [2]): 98
Crabgrass, Large plant response rating (crabgrass, large; [3]): 90
Plant response rating, Crabgrass, Large (crabgrass, large; [4]): 100
Plant response rating, Oat, Wild (oat, wild; [1]): 0
Plant response rating, Oat, Wild (oat, wild; [2]): 0
Plant response rating, Ryegrass, Italian (ryegrass, Italian; [1]): 0
Plant response rating, Ryegrass, Italian (ryegrass, Italian; [2]): 0
Plant response rating, Wheat (wheat; [5]): 0
Plant response rating, Wheat (wheat; [6]): 0
Wheat plant response rating (wheat; [7]): 0
Plant response rating, Wheat (wheat; [8]): 0
Plant response rating, Johnsongrass (johnsongrass; [1]): 0
Plant response rating, Johnsongrass (johnsongrass; [2]): 0
Plant response rating, Corn (corn; [1]): 0
Plant response rating, Corn (corn; [2]): 0
Corn plant response rating (corn; [3]): 0
Plant response rating, Corn (corn; [4]): 0
Plant response rating, Soybean (soybean; [1]): 0
Plant response rating, Soybean (soybean; [2]): 0

O=C1NCCC1C(=O)N(c1ccc(F)c(F)c1)c1ccccc1F (centres unmarked) [Compound 5, N-(3,4-difluorophenyl)-N-(2-fluorophenyl)-2-oxo-3-pyrrolidinecarboxamide]
Plant response rating, Galium (galium; [1]): 5
Galium plant response rating (galium; [3]): 0
Plant response rating, Galium (galium; [4]): 40
Plant response rating, Ragweed (ragweed; [1]): 0
Plant response rating, Ragweed (ragweed; [2]): 0
Plant response rating, Blackgrass (blackgrass; [1]): 0
Plant response rating, Blackgrass (blackgrass; [2]): 0
Blackgrass plant response rating (blackgrass; [3]): 0
Plant response rating, Blackgrass (blackgrass; [4]): 30
Plant response rating, Crabgrass, Large (crabgrass, large; [1]): 100
Plant response rating, Crabgrass, Large (crabgrass, large; [2]): 100
Crabgrass, Large plant response rating (crabgrass, large; [3]): 100
Plant response rating, Crabgrass, Large (crabgrass, large; [4]): 100
Plant response rating, Oat, Wild (oat, wild; [1]): 0
Plant response rating, Oat, Wild (oat, wild; [2]): 0
Plant response rating, Ryegrass, Italian (ryegrass, Italian; [1]): 0
Plant response rating, Ryegrass, Italian (ryegrass, Italian; [2]): 0
Wheat plant response rating (wheat; [7]): 0
plant injury at 500 g/ha (wheat; post-emergence, Postemergence, 500 g ai/ha, 0 to 100 scale (0 no effect, 100 complete control)): 0%
plant injury at 500 g/ha (wheat; pre-emergence, preemergence, 500 g ai/ha, 0 to 100 scale): 0%
Plant response rating, Johnsongrass (johnsongrass; [1]): 0
Plant response rating, Johnsongrass (johnsongrass; [2]): 0
Plant response rating, Corn (corn; [1]): 0
Plant response rating, Corn (corn; [2]): 0
Corn plant response rating (corn; [3]): 0
Plant response rating, Corn (corn; [4]): 0
Plant response rating, Soybean (soybean; [1]): 0
Plant response rating, Soybean (soybean; [2]): 0

O=C1NCC(c2ccc(F)c(F)c2)C1C(=O)Nc1cccc(F)c1F (centres unmarked) [Compound 17, N-(2,3-difluorophenyl)-4-(3,4-difluorophenyl)-2-oxo-3-pyrrolidinecarboxamide]
Plant response rating, Galium (galium; [9]): 0
Plant response rating, Galium (galium; [10]): 0
Plant response rating, Galium (galium; [11]): 0
Plant response rating, Galium (galium; [12]): 0
Plant response rating, Galium (galium; [1]): 70
Plant response rating, Galium (galium; [2]): 70
Galium plant response rating (galium; [3]): 0
Plant response rating, Galium (galium; [4]): 90
Plant response rating, Ragweed (ragweed; [9]): 0
Plant response rating, Ragweed (ragweed; [10]): 0
Plant response rating, Ragweed (ragweed; [11]): 0
Plant response rating, Ragweed (ragweed; [12]): 0
Plant response rating, Ragweed (ragweed; [1]): 0
Plant response rating, Ragweed (ragweed; [2]): 30
Plant response rating, Blackgrass (blackgrass; [9]): 0
Plant response rating, Blackgrass (blackgrass; [10]): 0
Plant response rating, Blackgrass (blackgrass; [11]): 0
Plant response rating, Blackgrass (blackgrass; [12]): 0
Plant response rating, Blackgrass (blackgrass; [1]): 50
Plant response rating, Blackgrass (blackgrass; [2]): 80
Blackgrass plant response rating (blackgrass; [3]): 5
Plant response rating, Blackgrass (blackgrass; [4]): 95
Plant response rating, Crabgrass, Large (crabgrass, large; [9]): 0
Plant response rating, Crabgrass, Large (crabgrass, large; [10]): 0
Plant response rating, Crabgrass, Large (crabgrass, large; [11]): 45
Plant response rating, Crabgrass, Large (crabgrass, large; [12]): 70
Plant response rating, Crabgrass, Large (crabgrass, large; [1]): 98
Plant response rating, Crabgrass, Large (crabgrass, large; [2]): 100
Crabgrass, Large plant response rating (crabgrass, large; [3]): 95
Plant response rating, Crabgrass, Large (crabgrass, large; [4]): 100
Plant response rating, Oat, Wild (oat, wild; [9]): 0
Plant response rating, Oat, Wild (oat, wild; [10]): 0
Plant response rating, Oat, Wild (oat, wild; [11]): 0
Plant response rating, Oat, Wild (oat, wild; [12]): 0
Plant response rating, Oat, Wild (oat, wild; [1]): 0
Plant response rating, Oat, Wild (oat, wild; [2]): 0
Plant response rating, Ryegrass, Italian (ryegrass, Italian; [9]): 0
Plant response rating, Ryegrass, Italian (ryegrass, Italian; [10]): 0
Plant response rating, Ryegrass, Italian (ryegrass, Italian; [11]): 0
Plant response rating, Ryegrass, Italian (ryegrass, Italian; [12]): 5
Plant response rating, Ryegrass, Italian (ryegrass, Italian; [1]): 5
Plant response rating, Ryegrass, Italian (ryegrass, Italian; [2]): 35
plant injury at 1000 g/ha (wheat; post-emergence, Postemergence, 0 to 100 scale (0 no effect, 100 complete control)): 60%
plant injury at 1000 g/ha (wheat; pre-emergence, Preemergence, visual rating on 0 to 100 scale (0 no effect, 100 complete control), approx. 10 days): 70%
Plant response rating, Johnsongrass (johnsongrass; [9]): 0
Plant response rating, Johnsongrass (johnsongrass; [10]): 0
Plant response rating, Johnsongrass (johnsongrass; [11]): 0
Plant response rating, Johnsongrass (johnsongrass; [12]): 0
Plant response rating, Johnsongrass (johnsongrass; [1]): 5
Plant response rating, Johnsongrass (johnsongrass; [2]): 65
Plant response rating, Corn (corn; [9]): 0
Plant response rating, Corn (corn; [10]): 0
Plant response rating, Corn (corn; [11]): 0
Plant response rating, Corn (corn; [12]): 0
Plant response rating, Corn (corn; [1]): 0
Plant response rating, Corn (corn; [2]): 30
Corn plant response rating (corn; [3]): 0
Plant response rating, Corn (corn; [4]): 70
Plant response rating, Soybean (soybean; [9]): 0
Plant response rating, Soybean (soybean; [10]): 0
Plant response rating, Soybean (soybean; [11]): 0
Plant response rating, Soybean (soybean; [12]): 0
Plant response rating, Soybean (soybean; [1]): 0
Plant response rating, Soybean (soybean; [2]): 0

O=C1NCC(c2cc(F)c(F)cc2F)C1C(=O)Nc1cccc(F)c1F (centres unmarked) [Compound 50]
Plant response rating, Ragweed (ragweed; [9]): 0
Plant response rating, Ragweed (ragweed; [10]): 0
Plant response rating, Ragweed (ragweed; [11]): 0
Plant response rating, Ragweed (ragweed; [12]): 10
Plant response rating, Blackgrass (blackgrass; [9]): 0
Plant response rating, Blackgrass (blackgrass; [10]): 0
Plant response rating, Blackgrass (blackgrass; [11]): 0
Plant response rating, Blackgrass (blackgrass; [12]): 0
Plant response rating, Crabgrass, Large (crabgrass, large; [9]): 10
Plant response rating, Crabgrass, Large (crabgrass, large; [10]): 25
Plant response rating, Crabgrass, Large (crabgrass, large; [11]): 40
Plant response rating, Crabgrass, Large (crabgrass, large; [12]): 75
Plant response rating, Oat, Wild (oat, wild; [9]): 0
Plant response rating, Oat, Wild (oat, wild; [10]): 0
Plant response rating, Oat, Wild (oat, wild; [11]): 0
Plant response rating, Oat, Wild (oat, wild; [12]): 0
Plant response rating, Ryegrass, Italian (ryegrass, Italian; [9]): 0
Plant response rating, Ryegrass, Italian (ryegrass, Italian; [10]): 0
Plant response rating, Ryegrass, Italian (ryegrass, Italian; [11]): 0
Plant response rating, Ryegrass, Italian (ryegrass, Italian; [12]): 0
Plant response rating, Wheat (wheat; [5]): 0
Plant response rating, Wheat (wheat; [6]): 0
Wheat plant response rating (wheat; [7]): 0
Plant response rating, Wheat (wheat; [8]): 0
Plant response rating, Johnsongrass (johnsongrass; [9]): 0
Plant response rating, Johnsongrass (johnsongrass; [10]): 0
Plant response rating, Johnsongrass (johnsongrass; [11]): 0
Plant response rating, Johnsongrass (johnsongrass; [12]): 10
Plant response rating, Corn (corn; [9]): 0
Plant response rating, Corn (corn; [10]): 0
Plant response rating, Corn (corn; [11]): 5
Plant response rating, Corn (corn; [12]): 5
Plant response rating, Soybean (soybean; [9]): 10
Plant response rating, Soybean (soybean; [10]): 15
Plant response rating, Soybean (soybean; [11]): 15
Plant response rating, Soybean (soybean; [12]): 20
